From patent US20180000085A1, “USE OF PICOLINAMIDE COMPOUNDS WITH FUNGICIDAL ACTIVITY” (DOW AGROSCIENCES LLC, priority 2014, published 2018)

Assays:
Zymoseptoria tritici = test: Leaf blotch of wheat (SEPTTR) disease control on wheat seedlings; type: in vivo; parameters: key to SEPTTR 1DP, HV activity at 100 ppm (% control rating) / SEPTTR 3DC, HV activity at 100 ppm (% control rating) / SEPTTR disease control, 1DP / SEPTTR disease control, 3DC / SEPTTR 1DP disease control rating, HV activity / SEPTTR 3DC disease control rating, HV activity / SEPTTR 3DC, LV activity at 125.1 g/H (% Control rating) / SEPTTR 1DP, LV activity at 125.1 g/H (% Control rating) / SEPTTR 1DP disease control rating, LV activity at 125.1 g/H / SEPTTR 3DC disease control rating, LV activity at 125.1 g/H / SEPTTR 3DC disease control rating, HV activity at 100 ppm / SEPTTR 1DP disease control rating, HV activity at 100 ppm / HV activity at 100 ppm SEPTTR 3DC (disease control rating) / HV activity at 100 ppm SEPTTR 1DP (disease control rating) / LV activity at 125.1 g/H SEPTTR 1DP (disease control rating) / LV activity at 125.1 g/H SEPTTR 3DC (disease control rating): A: > 80; B: ≤ 80; C: Not Tested; D: No Activity Observed in the Reported Assay; details: for HV activity at 100 ppm SEPTTR 1DP (disease control rating) / HV activity at 100 ppm SEPTTR 3DC (disease control rating): HV application
Puccinia triticina = test: Wheat brown rust (PUCCRT) disease control on wheat seedlings; type: in vivo; parameters: key to PUCCRT 3DC, HV activity at 100 ppm (% control rating) / PUCCRT disease control, 3DC / PUCCRT 1DP disease control rating, HV activity / PUCCRT 3DC disease control rating, HV activity / PUCCRT 3DC, LV activity at 125.1 g/H (% Control rating) / PUCCRT 1DP, LV activity at 125.1 g/H (% Control rating) / PUCCRT 3DC disease control rating, LV activity at 125.1 g/H / PUCCRT 1DP disease control rating, LV activity at 125.1 g/H / PUCCRT 3DC disease control rating, HV activity at 100 ppm / PUCCRT 1DP disease control rating, HV activity at 100 ppm / HV activity at 100 ppm PUCCRT 3DC (disease control rating) / LV activity at 125.1 g/H PUCCRT 1DP (disease control rating) / LV activity at 125.1 g/H PUCCRT 3DC (disease control rating): A: > 80; B: ≤ 80; C: Not Tested; D: No Activity Observed in the Reported Assay; details: for HV activity at 100 ppm PUCCRT 1DP (disease control rating) / HV activity at 100 ppm PUCCRT 3DC (disease control rating): HV application
[1] = low volume application, 125.1 g/H, 1 Day Protectant
[2] = low volume application, 125.1 g/H, 3 Day Curative
[3] = high volume application, 100 ppm, 1 day protectant
[4] = high volume application, 100 ppm, 3 day curative
[5] = 100 ppm, 1 Day Protectant, wheat leaf blotch
[6] = 100 ppm, 3 Day Curative, wheat leaf blotch
[7] = 100 ppm, 1 Day Protectant, wheat brown rust
[8] = 100 ppm, 3 Day Curative, wheat brown rust
[9] = low volume application, 125.1 g/H, 1 Day Protectant, wheat leaf blotch
[10] = low volume application, 125.1 g/H, 3 Day Curative, wheat leaf blotch
[11] = low volume application, 125.1 g/H, 1 Day Protectant, wheat brown rust
[12] = low volume application, 125.1 g/H, 3 Day Curative, wheat brown rust
[13] = low volume application, 125.1 g/H, 1 day protectant
[14] = low volume application, 125.1 g/H, 3 day curative

CCCOCC(C)OC(=O)C(C)NC(=O)c1nccc(OC)c1OCOC(C)=O (stereo not drawn) [Cmpd 522]
SEPTTR 1DP, LV activity at 125.1 g/H (% Control rating) (Zymoseptoria tritici; [1]): B (≤ 80) | SEPTTR 3DC, LV activity at 125.1 g/H (% Control rating) (Zymoseptoria tritici; [2]): B (≤ 80) | PUCCRT 1DP, LV activity at 125.1 g/H (% Control rating) (Puccinia triticina; [1]): D | PUCCRT 3DC, LV activity at 125.1 g/H (% Control rating) (Puccinia triticina; [2]): D

COc1ccnc(C(=O)NC(C)C(=O)OC(C)C(Oc2ccc(F)cc2)c2ccc(F)cc2)c1O (mixture of isomers) [Cmpd 838]
SEPTTR 1DP disease control rating, HV activity at 100 ppm (Zymoseptoria tritici; [3]): A (> 80) | SEPTTR 3DC disease control rating, HV activity at 100 ppm (Zymoseptoria tritici; [4]): A (> 80) | PUCCRT 1DP disease control rating, HV activity at 100 ppm (Puccinia triticina; [3]): A (> 80) | PUCCRT 3DC disease control rating, HV activity at 100 ppm (Puccinia triticina; [4]): B (≤ 80)

CCC(CC)[C@@H](Oc1cccc(F)c1)[C@H](C)OC(=O)[C@H](C)NC(=O)c1nccc(OC)c1OCOC(C)=O [Cmpd 586]
SEPTTR 1DP, LV activity at 125.1 g/H (% Control rating) (Zymoseptoria tritici; [1]): B (≤ 80) | SEPTTR 3DC, LV activity at 125.1 g/H (% Control rating) (Zymoseptoria tritici; [2]): A (> 80) | PUCCRT 1DP, LV activity at 125.1 g/H (% Control rating) (Puccinia triticina; [1]): A (> 80) | PUCCRT 3DC, LV activity at 125.1 g/H (% Control rating) (Puccinia triticina; [2]): A (> 80)

COc1ccnc(C(=O)N[C@@H](C)C(=O)O[C@@H](C)[C@H](Oc2ccc(C(F)(F)F)cc2)c2ccccc2)c1OC(C)=O [Cmpd 583]
SEPTTR 1DP, LV activity at 125.1 g/H (% Control rating) (Zymoseptoria tritici; [1]): A (> 80) | SEPTTR 3DC, LV activity at 125.1 g/H (% Control rating) (Zymoseptoria tritici; [2]): A (> 80) | PUCCRT 1DP, LV activity at 125.1 g/H (% Control rating) (Puccinia triticina; [1]): A (> 80) | PUCCRT 3DC, LV activity at 125.1 g/H (% Control rating) (Puccinia triticina; [2]): B (≤ 80)

CCCOC(CC)C(Oc1ccccc1)C(C)OC(=O)C(CC(C)C)NC(=O)c1nccc(OC)c1OC(C)=O (stereo not drawn) [Cmpd 452]
SEPTTR 1DP disease control rating, HV activity (Zymoseptoria tritici; HV application at 100 ppm, 1 Day Protectant, wheat leaf blotch): B (≤ 80) | SEPTTR 3DC disease control rating, HV activity (Zymoseptoria tritici; HV application at 100 ppm, 3 Day Curative, wheat leaf blotch): B (≤ 80) | PUCCRT 1DP disease control rating, HV activity (Puccinia triticina; HV application at 100 ppm, 1 Day Protectant, wheat brown rust): A (> 80) | PUCCRT 3DC disease control rating, HV activity (Puccinia triticina; HV application at 100 ppm, 3 Day Curative, wheat brown rust): A (> 80)

CCC(CC)[C@@H](Oc1ccc(Cl)cc1Cl)[C@H](C)OC(=O)[C@H](C)NC(=O)c1nccc(OC)c1OCOC(C)=O [Cmpd 590]
SEPTTR 1DP, LV activity at 125.1 g/H (% Control rating) (Zymoseptoria tritici; [1]): B (≤ 80) | SEPTTR 3DC, LV activity at 125.1 g/H (% Control rating) (Zymoseptoria tritici; [2]): B (≤ 80) | PUCCRT 1DP, LV activity at 125.1 g/H (% Control rating) (Puccinia triticina; [1]): A (> 80) | PUCCRT 3DC, LV activity at 125.1 g/H (% Control rating) (Puccinia triticina; [2]): B (≤ 80)

COc1ccnc(C(=O)N[C@@H](C)C(=O)O[C@@H](C)[C@@H](CC(C)C)Oc2ccc3ccccc3c2)c1O [Cmpd 1046]
HV activity at 100 ppm SEPTTR 1DP (disease control rating) (Zymoseptoria tritici; [5]): D | HV activity at 100 ppm SEPTTR 3DC (disease control rating) (Zymoseptoria tritici; [6]): D | HV activity at 100 ppm PUCCRT 1DP (disease control rating) (Puccinia triticina; [7]): A (> 80) | HV activity at 100 ppm PUCCRT 3DC (disease control rating) (Puccinia triticina; [8]): A (> 80)

CC(C)C[C@@H](Oc1cc(F)ccc1F)[C@H](C)OC(=O)[C@H](C)NC(=O)c1ncccc1O [Cmpd 1036]
HV activity at 100 ppm SEPTTR 1DP (disease control rating) (Zymoseptoria tritici; [5]): B (≤ 80) | HV activity at 100 ppm SEPTTR 3DC (disease control rating) (Zymoseptoria tritici; [6]): D | HV activity at 100 ppm PUCCRT 1DP (disease control rating) (Puccinia triticina; [7]): A (> 80) | HV activity at 100 ppm PUCCRT 3DC (disease control rating) (Puccinia triticina; [8]): B (≤ 80)

C=CC[C@@H](Oc1ccc(C(F)(F)F)cc1)[C@H](C)OC(=O)[C@H](C)NC(=O)c1nccc(OC)c1OCOC(C)=O [Cmpd 1077]
LV activity at 125.1 g/H SEPTTR 1DP (disease control rating) (Zymoseptoria tritici; [9]): B (≤ 80) | LV activity at 125.1 g/H SEPTTR 3DC (disease control rating) (Zymoseptoria tritici; [10]): D | LV activity at 125.1 g/H PUCCRT 1DP (disease control rating) (Puccinia triticina; [11]): A (> 80) | LV activity at 125.1 g/H PUCCRT 3DC (disease control rating) (Puccinia triticina; [12]): B (≤ 80)

CCC(CC)[C@@H](Oc1ccc(Cl)cc1Cl)[C@H](C)OC(=O)[C@H](C)NC(=O)c1nccc(OC)c1OC(C)=O [Cmpd 601]
SEPTTR 1DP, LV activity at 125.1 g/H (% Control rating) (Zymoseptoria tritici; [1]): B (≤ 80) | SEPTTR 3DC, LV activity at 125.1 g/H (% Control rating) (Zymoseptoria tritici; [2]): B (≤ 80) | PUCCRT 1DP, LV activity at 125.1 g/H (% Control rating) (Puccinia triticina; [1]): A (> 80) | PUCCRT 3DC, LV activity at 125.1 g/H (% Control rating) (Puccinia triticina; [2]): B (≤ 80)

CCC(CC)C(Oc1cc(F)cc(Cl)c1)C(C)OC(=O)C(CC(C)C)NC(=O)c1nccc(OC)c1OCOC(C)=O (stereo not drawn) [Cmpd 683]
SEPTTR 1DP disease control rating, LV activity at 125.1 g/H (Zymoseptoria tritici; [13]): D | SEPTTR 3DC disease control rating, LV activity at 125.1 g/H (Zymoseptoria tritici; [14]): B (≤ 80) | PUCCRT 1DP disease control rating, LV activity at 125.1 g/H (Puccinia triticina; [13]): D | PUCCRT 3DC disease control rating, LV activity at 125.1 g/H (Puccinia triticina; [14]): D

C=CC[C@@H](Oc1ccc(F)cc1F)[C@H](C)OC(=O)[C@H](C)NC(=O)c1nccc(OC)c1OCOC(C)=O [Cmpd 1075]
LV activity at 125.1 g/H SEPTTR 1DP (disease control rating) (Zymoseptoria tritici; [9]): D | LV activity at 125.1 g/H SEPTTR 3DC (disease control rating) (Zymoseptoria tritici; [10]): B (≤ 80) | LV activity at 125.1 g/H PUCCRT 1DP (disease control rating) (Puccinia triticina; [11]): A (> 80) | LV activity at 125.1 g/H PUCCRT 3DC (disease control rating) (Puccinia triticina; [12]): B (≤ 80)
